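Compound exposure: 48 hours, 5 concentrations, 96-well plates. At the TGI there is no net growth.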

Among the test systems are NCI-H522 lung; CCRF-CEM leukemia; IGROV1 ovarian; A549 NSCLC; COLO 205 colon; HCT-15 colon; SK-MEL-5 melanoma; NCI/ADR-RES ovarian.
What all share (assay): NCI-60 cell line screen, 48 h

Take `COC(=O)C1=C(C(=O)OC)C23C=CC=CC24C(C(=O)OC)=C(C(=O)OC)C4C1C3` (stereo not drawn): the TGI with NCI-H522 lung, in the assay on CCRF-CEM leukemia, in the assay on IGROV1 ovarian, in the assay with A549 NSCLC, in the assay with COLO 205 colon and in the assay on HCT-15 colon was above 100 µM throughout. Further, the TGI in the assay on SK-MEL-5 melanoma is above 100 µM.
Consider `NC(=O)c1csc(C2C=CC(CO)O2)n1` (stereo not drawn), for which the TGI in the assay with NCI-H522 lung, with CCRF-CEM leukemia, in the assay on IGROV1 ovarian, with A549 NSCLC, in the assay on COLO 205 colon and in the assay with HCT-15 colon was above 100 µM each time.
Consider `CC1=C(C(=O)Nc2ccccc2C)C(c2ccc([N+](=O)[O-])cc2)C(C(=O)Nc2ccccc2C)=C(C)N1`, for which the TGI in the assay with NCI-H522 lung was above 100 µM; in the assay with CCRF-CEM leukemia, 90.5 µM; in the assay with IGROV1 ovarian it was above 100 µM; in the assay with A549 NSCLC, above 100 µM; in the assay on COLO 205 colon, above 100 µM; with HCT-15 colon, above 100 µM. In addition, the TGI in the assay with SK-MEL-5 melanoma is above 100 µM.
In the case of `N/N=C1\c2ccccc2C2/C(=N\N)c3ccccc3C12` (stereo not drawn), the TGI in the assay on NCI-H522 lung, in the assay on CCRF-CEM leukemia, in the assay with IGROV1 ovarian, in the assay on A549 NSCLC, with COLO 205 colon and in the assay with HCT-15 colon was above 100 µM in each case. Moreover, the TGI in the assay with SK-MEL-5 melanoma was above 100 µM.
Turning to `CC(=O)NNc1nc(C)c(C(/C=C/c2ccc(Cl)cc2)=N\NS(=O)(=O)c2ccc(C)cc2)s1`, the TGI with NCI-H522 lung, with CCRF-CEM leukemia, with IGROV1 ovarian, with A549 NSCLC, in the assay with COLO 205 colon and in the assay with HCT-15 colon was above 100 µM in each case. Also, the TGI in the assay with SK-MEL-5 melanoma is above 100 µM.
With `Cc1ccc(NC(=O)CC(=O)n2nc(-c3ccccc3)c(N=Nc3ccc(Cl)cc3)c2-c2ccccc2)cc1`, the TGI is 54.3 µM in the assay on CCRF-CEM leukemia; above 100 µM with IGROV1 ovarian; 64.4 µM in the assay on A549 NSCLC; above 100 µM with COLO 205 colon; above 100 µM in the assay on HCT-15 colon; above 100 µM with SK-MEL-5 melanoma.
On to `O=C(O)c1cc2ccccc2c(N=Nc2c([N+](=O)[O-])cc([N+](=O)[O-])cc2S(=O)(=O)O)c1O`, for which the TGI in the assay on NCI/ADR-RES ovarian, with NCI-H522 lung, with CCRF-CEM leukemia, in the assay with IGROV1 ovarian, in the assay with A549 NSCLC and with COLO 205 colon was above 100 µM in each case. Further, the TGI with HCT-15 colon and in the assay on SK-MEL-5 melanoma was above 100 µM each time.
As to `CCCCCCCCCCCCCC/C(C(=O)OC)=C(/O)C(=O)OCC`, the TGI with NCI-H522 lung is above 100 µM; in the assay with CCRF-CEM leukemia it was above 100 µM; in the assay on IGROV1 ovarian, above 100 µM; in the assay with A549 NSCLC it was 64.9 µM; with COLO 205 colon it was above 100 µM; in the assay on HCT-15 colon it was 36.3 µM. For the same molecule, the TGI with SK-MEL-5 melanoma was above 100 µM.
Consider `C/C(=N\NC(=O)CC(=O)Nc1ccc(Cl)cc1)c1cc2ccccc2oc1=O`, for which the TGI in the assay on NCI-H522 lung, with CCRF-CEM leukemia, with IGROV1 ovarian, in the assay with A549 NSCLC, with COLO 205 colon and in the assay with HCT-15 colon was above 100 µM each time. Also, in the assay with SK-MEL-5 melanoma, the TGI was above 100 µM.
For the molecule `O=C(CC/C(C/C(=N/O)c1ccc(F)cc1)=N/O)N(Cc1ccccc1)Cc1ccccc1`, the TGI with NCI-H522 lung, in the assay on CCRF-CEM leukemia, with IGROV1 ovarian, in the assay with A549 NSCLC, in the assay with COLO 205 colon and with HCT-15 colon was above 100 µM each time. Besides, the TGI with SK-MEL-5 melanoma was above 100 µM.
As for `CC12O[C@H](c3ccccc3)[C@H](c3ccccc3)N1C(=O)C1(C(=O)OCc3ccccc3)CC12` (stereo partly drawn), the TGI with NCI-H522 lung, in the assay on CCRF-CEM leukemia, in the assay with IGROV1 ovarian, in the assay on A549 NSCLC, with COLO 205 colon and with HCT-15 colon was above 100 µM in each case. In the assay on SK-MEL-5 melanoma, this molecule yielded a TGI above 100 µM.
In the case of `Cc1cc(N(CCC#N)CCC#N)ccc1/C=C(\NC(=O)/C=C/c1ccccc1)NC(=O)Nc1ccc(Cl)cc1`, the TGI with CCRF-CEM leukemia, in the assay with IGROV1 ovarian, with A549 NSCLC, in the assay on COLO 205 colon, in the assay on HCT-15 colon and in the assay with SK-MEL-5 melanoma was above 100 µM in each case.
Take `CC1C=C(OC(=O)c2ccccc2)C(=O)C(n2cc(F)c(=O)n(C(=O)c3ccccc3)c2=O)O1` (stereo not drawn): the TGI with CCRF-CEM leukemia was 45.2 µM; in the assay on IGROV1 ovarian, above 100 µM; with A549 NSCLC, above 100 µM; in the assay on COLO 205 colon it was 62.1 µM; with HCT-15 colon it was above 100 µM; in the assay with SK-MEL-5 melanoma it was above 100 µM.

For the origin of these results see PubChem BioAssay (NCI).
